pKi: −log10 of the molar value. Counter-ions that a name gives are not always drawn.
molecular target: T1, human GlyT1c transporter (Homo sapiens, UniProt P48067); assay: Radioligand binding assay using recombinant CHO cell membranes expressing human GlyT1; details: values given as upper bounds, read-out: radioligand binding Kiapp
T1 construct: expressed in transfected cells; host or cells: CHO cells (recombinant; membranes)
T1 sequence (P48067 1-706): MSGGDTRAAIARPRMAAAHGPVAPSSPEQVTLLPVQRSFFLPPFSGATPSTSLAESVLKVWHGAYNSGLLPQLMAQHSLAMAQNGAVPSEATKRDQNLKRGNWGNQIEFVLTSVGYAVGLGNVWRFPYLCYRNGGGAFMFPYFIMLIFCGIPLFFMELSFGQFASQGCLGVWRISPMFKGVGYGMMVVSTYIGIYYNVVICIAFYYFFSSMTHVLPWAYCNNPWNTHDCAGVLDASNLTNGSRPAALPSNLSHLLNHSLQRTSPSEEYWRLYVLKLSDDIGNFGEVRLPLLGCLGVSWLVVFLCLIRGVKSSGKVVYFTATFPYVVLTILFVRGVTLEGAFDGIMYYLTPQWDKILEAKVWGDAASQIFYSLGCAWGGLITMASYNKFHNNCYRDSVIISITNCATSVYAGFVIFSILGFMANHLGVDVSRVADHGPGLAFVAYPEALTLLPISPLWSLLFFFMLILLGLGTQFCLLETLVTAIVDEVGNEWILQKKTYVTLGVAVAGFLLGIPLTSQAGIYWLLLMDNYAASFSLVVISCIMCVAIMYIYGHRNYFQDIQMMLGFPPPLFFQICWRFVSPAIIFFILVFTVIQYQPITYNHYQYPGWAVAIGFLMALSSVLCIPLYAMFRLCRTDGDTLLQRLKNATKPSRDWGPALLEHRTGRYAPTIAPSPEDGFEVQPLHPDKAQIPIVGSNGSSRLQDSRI
Experimental: 2. Radioligand Binding Assays Using Recombinant CHO Cell Membranes Expressing Human GlyT1:
Radioligand binding to human GlyT1c transporter-expressing membranes was determined as described in Mezler et al., Molecular Pharmacology 74:1705-1715, 2008.

Structure (SMILES) | pKi
Cc1ncc(S(=O)(=O)NCc2ccc3c(c2)C(Cc2ccccc2)C(N)CO3)n1C (centres unmarked) [Example 58, 2,3-Dimethyl-3H-imidazole-4-sulfonic acid (3-amino-4-benzyl-chroman-6-ylmethyl)-amide 2,2,2-trifluoroacetate] | ≥ 6.00
CCS(=O)(=O)NCc1ccc2c(c1)C(Cc1ccccc1)C(NC)CO2 (single isomer, unassigned; isomer 2) [Example 79, cis-N-{[4-Benzyl-3-(methyl-amino)-3,4-dihydro-2H-chromen-6-yl]methy}ethane-sulfonamide. (Isomer 2)] | ≥ 7.00
Cn1cnc(S(=O)(=O)NCCOc2ccc3c(c2)C(Cc2ccccc2)C(N2CCC2)CO3)c1 (single isomer, unassigned; isomer 2) [Example 80, cis-1-Methyl-1H-imidazole-4-sulfonic acid [2-(3-azetidin-1-yl-4-benzyl-chroman-6-yloxy)-ethyl]-amide. (Isomer 2)] | ≥ 8.00
CC(C)CCN[C@@H]1COc2ccc(CNS(=O)(=O)c3cn(C)cn3)cc2[C@@H]1Cc1ccccc1 (relative stereo) [Example 39, cis-N-((-4-benzyl-3-(isopentylamino)chroman-6-yl)methyl)-1-methyl-1H-imidazole-4-sulfonamide 2,2,2-trifluoroacetate] | ≥ 8.00
CN[C@@H]1COc2cc(F)c(CNS(=O)(=O)c3cn(C)cn3)cc2[C@H]1Cc1ccccc1 (relative stereo) [Example 32, trans-1-Methyl-1H-imidazole-4-sulfonic acid (-4-benzyl-7-fluoro-3-methylamino-chroman-6-ylmethyl)-amide] | ≥ 8.00
CCS(=O)(=O)NCCOc1cc2c(cc1F)OC[C@@H](NC)[C@H]2Cc1ccccc1 (relative stereo) [Example 29, cis-Ethanesulfonic acid [2-(-4-benzyl-7-fluoro-3-methylamino-chroman-6-yloxy)-ethyl]-amide] | ≥ 7.00
CCS(=O)(=O)NCc1cc2c(cc1F)OC[C@@H](NC)[C@H]2Cc1ccccc1 (relative stereo) [Example 27, cis-Ethanesulfonic acid (-4-benzyl-7-fluoro-3-methylamino-chroman-6-ylmethyl)-amide] | ≥ 8.00
Cc1cc(S(=O)(=O)NCc2ccc3c(c2)C(Cc2ccccc2)C(N)CO3)n(C)n1 (centres unmarked) [Example 55, 2,5-Dimethyl-2H-pyrazole-3-sulfonic acid (3-amino-4-benzyl-chroman-6-ylmethyl)-amide 2,2,2-trifluoroacetate] | ≥ 5.00
Cn1cnc(S(=O)(=O)NCc2ccc3c(c2)[C@H](Cc2ccccc2)[C@H](NCC(C)(C)C)CO3)c1 (relative stereo) [Example 36, cis-N-((-4-benzyl-3-(neopentylamino)chroman-6-yl)methyl)-1-methyl-1H-imidazole-4-sulfonamide 2,2,2-trifluoroacetate] | ≥ 7.00
Cn1cnc(S(=O)(=O)NCc2ccc3c(c2)[C@H](Cc2ccccc2)[C@H](N)CO3)c1 (relative stereo) [Example 12, cis-1-Methyl-1H-imidazole 4-sulfonic acid (3-amino-4-benzyl-chroman-6-ylmethyl)-amide] | ≥ 8.00
Cn1cnc(S(=O)(=O)NCc2ccc3c(c2)[C@H](Cc2ccccc2)[C@H](N2CCCC2)CO3)c1 (relative stereo) [Example 62, cis-1-Methyl-1H-imidazole-4-sulfonic acid (-4-benzyl-3-pyrrolidin-1-yl-chroman-6-ylmethyl)-amide] | ≥ 8.00
CCCS(=O)(=O)NCc1ccc2c(c1)[C@H](Cc1ccccc1)[C@H](N)CO2 (relative stereo) [Example 71, cis-Propane-1-sulfonic acid (-3-amino-4-benzyl-chroman-6-ylmethyl)-amide] | ≥ 7.00
O=S(=O)(CC1CC1)NCc1ccc2c(c1)[C@H](Cc1ccccc1)[C@H](N1CCCC1)CO2 (relative stereo) [Example 65, cis-N-(-4-Benzyl-3-pyrrolidin-1-yl-chroman-6-ylmethyl)-C-cyclopropyl-methanesulfonamide] | ≥ 8.00
Cn1cnc(S(=O)(=O)NCc2ccc3c(c2)[C@H](Cc2ccccc2)[C@H](NCCC2CC2)CO3)c1 (relative stereo) [Example 33, cis-N-((-4-benzyl-3-((2-cyclopropylethyl)amino)chroman-6-yl)methyl)-1-methyl-1H-imidazole-4-sulfonamide 2,2,2-trifluoroacetate] | ≥ 8.00
Cn1cnc(S(=O)(=O)NCCOc2ccc3c(c2)[C@H](Cc2ccccc2)[C@H](N2CCC2)CO3)c1 (relative stereo) [Example 10, cis-1-Methyl-1H-imidazole-4-sulfonic acid [2-(3-azetidin-1-yl-4-benzyl-chroman-6-yloxy)-ethyl]-amide] | ≥ 8.00
CC(C)CS(=O)(=O)NCc1ccc2c(c1)C(Cc1ccccc1)C(N)CO2 (centres unmarked) [Example 51, 2-Methyl-propane-1-sulfonic acid (3-amino-4-benzyl-chroman-6-ylmethyl)-amide 2,2,2-trifluoroacetate] | ≥ 5.00
Cn1cc(S(=O)(=O)NCc2ccc3c(c2)[C@H](Cc2ccccc2)[C@H](N2CCC2)CO3)cn1 (relative stereo) [Example 15, cis-1-Methyl-1H-pyrazole-4-sulfonic acid (3-azetidin-1-yl-4-benzyl-chroman-6-ylmethyl)-amide] | ≥ 8.00
CCS(=O)(=O)NCc1ccc2c(c1)C(Cc1ccccc1)C(N1CCC1)CO2 (centres unmarked) [Example 19, Ethanesulfonic acid (3-azetidin-1-yl-4-benzyl-chroman-6-ylmethyl)-amide; trifluoro-acetic acid salt] | ≥ 6.00
Cn1cnc(S(=O)(=O)NCc2ccc3c(c2)[C@@H](Cc2ccccc2)[C@H](N)CO3)c1 (relative stereo) [Example 13, trans-1-Methyl-1H-imidazole-4-sulfonic acid (3-amino-4-benzyl-chroman-6-ylmethyl)-amide] | ≥ 8.00
Cc1csc(S(=O)(=O)NCc2ccc3c(c2)C(Cc2ccccc2)C(N)CO3)c1 (centres unmarked) [Example 56, 4-Methyl-thiophene-2-sulfonic acid (3-amino-4-benzyl-chroman-6-ylmethyl)-amide 2,2,2-trifluoroacetate] | ≥ 7.00
CS(=O)(=O)NCc1ccc2c(c1)[C@H](Cc1ccccc1)[C@H](N1CCCC1)CO2 (relative stereo) [Example 64, cis-N-(-4-Benzyl-3-pyrrolidin-1-yl-chroman-6-ylmethyl)-methanesulfonamide] | ≥ 6.00

The remaining lines, values ahead:

pKi | Structure (SMILES)
≥ 8.00 | CN[C@@H]1COc2ccc(OCCNS(=O)(=O)CC3CC3)cc2[C@@H]1Cc1ccccc1 (relative stereo) [Example 4a, cis-N-(2-{[-4-Benzyl-3-(methylamino)-3,4-dihydro-2H-chromen-6-yl]oxy}ethyl)-1-cyclopropylmethanesulfonamide]
≥ 8.00 | CCCS(=O)(=O)NCc1ccc2c(c1)[C@H](Cc1ccccc1)[C@H](NC)CO2 (relative stereo) [Example 7a, cis-N-{[4-Benzyl-3-(methylamino)-3,4-dihydro-2H-chromen-6-yl]methyl}propane-1-sulfonamide]
≥ 7.00 | CN[C@@H]1COc2ccc(OCCNS(=O)(=O)CC3CC3)cc2[C@H]1Cc1ccccc1 (relative stereo) [Example 4b, trans-N-(2-{[-4-benzyl-3-(methylamino)-3,4-dihydro-2H-chromen-6-yl]oxy}ethyl)-1-cyclopropylmethanesulfonamide]
≥ 6.00 | CCS(=O)(=O)NCc1ccc2c(c1)[C@@H](Cc1ccccc1)[C@H](NC)CO2 (relative stereo) [Example 9b, trans-N-{[4-benzyl-3-(methylamino)-3,4-dihydro-2H-chromen-6-yl]methyl}ethanesulfonamide]
≥ 8.00 | CN[C@@H]1COc2ccc(OCCNS(=O)(=O)c3cnn(C)c3)cc2[C@@H]1Cc1ccccc1 (relative stereo) [Example 1a, cis-N-(2-{[4-Benzyl-3-(methylamino)-3,4-dihydro-2H-chromen-6-yl]oxy}ethyl)-1-methyl-1H-pyrazole-4-sulfonamide hydrochloride]
≥ 8.00 | CN[C@@H]1COc2ccc(OCCNS(=O)(=O)c3cn(C)cn3)cc2[C@@H]1Cc1ccccc1 (relative stereo) [Example 2a, cis-N-(2-{[-4-Benzyl-3-(methylamino)-3,4-dihydro-2H-chromen-6-yl]oxy}ethyl)-1-methyl-1H-imidazole-4-sulfonamide]
≥ 8.00 | CN[C@@H]1COc2ccc(CNS(=O)(=O)c3cn(C)cn3)cc2[C@H]1Cc1ccccc1 (relative stereo) [Example 5b, trans-1-Methyl-1H-imidazole-4-sulfonic acid (4-benzyl-3-methylamino-chroman-6-ylmethyl)-amide]
≥ 7.00 | CN[C@@H]1COc2ccc(CNS(=O)(=O)CC3CC3)cc2[C@H]1Cc1ccccc1 (relative stereo) [Example 8b, trans-N-{[4-benzyl-3-(methylamino)-3,4-dihydro-2H-chromen-6-yl]methyl}-1-cyclopropylmethanesulfonamide]

Reference: patent publication US8853196B2, “Aminochromane, aminothiochromane and amino-1,2,3,4-tetrahydroquinoline derivatives, pharmaceutical compositions containing them, and their use in therapy” (AbbVie Deutschland GmbH & Co. KG, priority 2011, dated 2014)
